From ChEMBL document CHEMBL3352134, “In silico and pharmacological screenings identify novel serine racemase inhibitors” (Bioorg Med Chem Lett, 2014) come the findings set out here.

In test [1] the target is T1, Serine racemase (Homo sapiens, UniProt Q9GZT4).
T1 sequence (Q9GZT4 whole entry): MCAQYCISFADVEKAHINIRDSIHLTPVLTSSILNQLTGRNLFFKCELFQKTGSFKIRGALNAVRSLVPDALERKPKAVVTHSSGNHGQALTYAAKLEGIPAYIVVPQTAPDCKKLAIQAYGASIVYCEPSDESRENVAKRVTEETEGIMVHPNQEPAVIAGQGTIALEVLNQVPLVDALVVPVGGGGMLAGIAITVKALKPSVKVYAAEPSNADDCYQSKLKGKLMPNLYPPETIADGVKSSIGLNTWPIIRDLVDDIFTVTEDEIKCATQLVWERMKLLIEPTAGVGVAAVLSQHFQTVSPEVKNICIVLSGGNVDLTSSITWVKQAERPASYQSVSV
Nature of the test: Binding affinity to serine recemase (unknown origin).

The target in test [2] is Serine racemase (Homo sapiens, UniProt Q9GZT4). Nature of the test: Inhibition of full length human recombinant serine recemase C2DC6D mutant expressed in Escherichia coli BL21 (DE3) assessed as D-serine production after 10 mins by Saccharomyces cerevisiae Dsd1SC based D-serine detection assay.
In test [3] the target is T2, Serine racemase (Homo sapiens) (UniProt Q9GZT4).
T2 sequence (whole entry): T1 sequence (Q9GZT4 whole entry)
Nature of the test: Inhibition of full length human recombinant serine recemase C2DC6D mutant expressed in Escherichia coli BL21 (DE3) assessed as D-serine production at 1 mM after 10 mins by Saccharomyces cerevisiae Dsd1SC based D-serine detection assay.

Compound `N[C@H](C(=O)O)[C@@H](O)C(=O)O` registered a Ki in test [1] of 11 µM.

Consider `NCC(=O)O` [GLYCINE], for which, in test [1], the Ki came out at 366 µM. For `O=C(O)CC(=O)O` [MALONIC ACID], the Ki in test [1] is 33 µM. Moreover, in test [2], the half-inhibitory concentration (IC50) stood at 1310 µM. Also, in test [3], the inhibition was 59%.
